In patent publication US9302999B2, “Substituted triazoles as herbicides” (E. I. DU PONT DE NEMOURS AND COMPANY, priority 2012, dated 2016):

Assays:
Format in all cases: in vivo
[1] = system: cocklebur (common cocklebur, Xanthium strumarium); test: Test C pre-/postemergence: cocklebur
Excerpt: Seeds of plant species selected from blackgrass (Alopecurus myosuroides), bromegrass, downy (downy bromegrass, Bromus tectorum), foxtail, green (green foxtail, Setaria viridis), ryegrass, Italian (Italian ryegrass, Lolium multiflorum), winter wheat (Triticum aestivum), wild oat (Avena fatua), galium (catchweed bedstraw, Galium aparine), bermudagrass (Cynodon dactylon), surinam grass (Brachiaria decumbens), cocklebur (common cocklebur, Xanthium strumarium), corn (Zea mays), large crabgrass (Digitaria sanguinalis), woolly cupgrass (Eriochloa villosa), foxtail, giant (giant foxtail, Setaria faberii), goosegrass (Eleusine indica), johnsongrass (Sorghum halepense), kochia (Kochia scoparia), lambsquarters (Chenopodium album), morningglory (Ipomoea coccinea), nightshade (eastern black nightshade, Solanum ptycanthum), nutsedge, yellow (yellow nutsedge, Cyperus esculentus), pigweed (Amaranthus retroflexus), ragweed (common ragweed, Ambrosia elation), soybean (Glycine max), common (oilseed) sunflower (Helianthus annuus), Russian thistle (Salsola kali) and velvetleaf (Abutilon theophrasti) were planted into a blend of loam soil and sand and treated preemergence with test chemicals formulated in a non-phytotoxic solvent mixture which included a surfactant.
(§1) At the same time, plants selected from these crop and weed species and also barley (winter barley, Hordeum vulgare), canarygrass (Phalaris minor), chickweed (common chickweed, Stellaria media) windgrass (Apera spica-venti) and deadnettle (henbit deadnettle, Lamium amplexicaule) were planted in pots containing Redi-Earth® planting medium (Scotts Company, 14111 Scottslawn Road, Marysville, Ohio 43041) comprising spaghnum peat moss, vermiculite, wetting agent and starter nutrients and treated with postemergence applications of test chemicals formulated in the same manner. Plants ranged in height from 2 to 18 cm (1- to 4-leaf stage) for postemergence treatments.
(§2) Treated plants and controls were maintained in a greenhouse for 13 to 15 days, after which time all species were compared to controls and visually evaluated. Plant response ratings, summarized in Table C, are based on a scale of 0 to 100 where 0 is no effect and 100 is complete control. A dash (-) response means no test result.

[2] = system: canarygrass (Phalaris minor); test: Test C postemergence: canarygrass
Excerpt: as §1, §2

[3] = system: deadnettle (henbit deadnettle, Lamium amplexicaule); test: Test C postemergence: deadnettle
Excerpt: as §1, §2

kochia (Kochia scoparia) = test: Test D pre-/postemergence: kochia
Excerpt: (§3) Seeds of plant species selected from bluegrass (annual bluegrass, Poa annua), blackgrass (Alopecurus myosuroides), canarygrass (Phalaris minor), chickweed (common chickweed, Stellaria media), galium (catchweed bedstraw, Galium aparine), bromegrass, downy (downy bromegrass, Bromus tectorum), field poppy (Papaver rhoeas), field violet (Viola arvensis), foxtail, green (green foxtail, Setaria viridis), deadnettle (henbit deadnettle, Lamium amplexicaule), ryegrass, Italian (Italian ryegrass, Lolium multiflorum), kochia (Kochia scoparia), lambsquarters (Chenopodium album), oilseed rape (Brassica napus), pigweed (Amaranthus retroflexus), Russian thistle (Salsola iberica), chamomile (scentless chamomile, Matricaria inodora), speedwell (bird's-eye speedwell, Veronica persica), barley, spring (spring barley, Hordeum vulgare), wheat, spring (spring wheat, Triticum aestivum), buckwheat, wild (wild buckwheat, Polygonum convolvulus), mustard, wild (wild mustard, Sinapis arvensis), oat, wild (wild oat, Avena fatua), radish, wild (wild radish, Raphanus raphanistrum), windgrass (Apera spica-venti), barley, winter (winter barley, Hordeum vulgare), and wheat, winter (winter wheat, Triticum aestivum) were planted into a silt loam soil and treated preemergence with test chemicals formulated in a non-phytotoxic solvent mixture which included a surfactant. At the same time, these same crop and weed species were planted in pots containing the planting medium comprising spaghnum peat moss, vermiculite, wetting agent and starter nutrients and treated with postemergence applications of the test chemicals formulated in the same manner. Plants ranged in height from 2 to 18 cm (1- to 4-leaf stage).
as §2, with “controlled growth environment” for “greenhouse”, “14” for “13”, “21 days” for “15 days,”, “D,” for “C,”

[4] = system: speedwell (bird's-eye speedwell, Veronica persica); test: Test D pre-/postemergence: speedwell; details: Preemergence
Excerpt: as §3
as §2, with “controlled growth environment” for “greenhouse”, “14” for “13”, “21 days” for “15 days,”, “D,” for “C,”

[5] = system: mustard, wild (wild mustard, Sinapis arvensis); test: Test D pre-/postemergence: mustard, wild
Excerpt: as §3
as §2, with “controlled growth environment” for “greenhouse”, “14” for “13”, “21 days” for “15 days,”, “D,” for “C,”

[6] = system: pigweed (Amaranthus retroflexus); test: Test D pre-/postemergence: pigweed
Excerpt: as §3
as §2, with “controlled growth environment” for “greenhouse”, “14” for “13”, “21 days” for “15 days,”, “D,” for “C,”

[7] = system: galium (catchweed bedstraw, Galium aparine); test: Test D pre-/postemergence: galium; details: Postemergence
Excerpt: as §3
as §2, with “controlled growth environment” for “greenhouse”, “14” for “13”, “21 days” for “15 days,”, “D,” for “C,”

[8] = system: field poppy (Papaver rhoeas); test: Test D pre-/postemergence: field poppy
Excerpt: as §3
as §2, with “controlled growth environment” for “greenhouse”, “14” for “13”, “21 days” for “15 days,”, “D,” for “C,”

[9] = system: lambsquarters (Chenopodium album); test: Test D pre-/postemergence: lambsquarters
Excerpt: as §3
as §2, with “controlled growth environment” for “greenhouse”, “14” for “13”, “21 days” for “15 days,”, “D,” for “C,”

[10] = Postemergence, 31 g ai/ha, scale 0 to 100 (0 no effect, 100 complete control)
[11] = Postemergence, 62 g ai/ha, scale 0 to 100 (0 no effect, 100 complete control)
[12] = Postemergence, 125 g ai/ha, scale 0 to 100, 0 no effect, 100 complete control
[13] = Postemergence, 250 g ai/ha, scale 0 to 100
[14] = Preemergence, 31 g ai/ha, scale of 0 to 100, 0 is no effect, 100 is complete control
[15] = Preemergence, 125 g ai/ha, scale 0 to 100, 0 no effect, 100 complete control
[16] = 31 g ai/ha, scale 0 to 100 (0 no effect, 100 complete control)
[17] = 62 g ai/ha, scale 0 to 100 (0 no effect, 100 complete control)
[18] = 125 g ai/ha, scale 0 to 100, 0 no effect, 100 complete control
[19] = 16 g ai/ha, scale 0 to 100, 0 no effect, 100 complete control
[20] = Postemergence, 16 g ai/ha, scale 0 to 100
[21] = Preemergence, 16 g ai/ha, scale 0 to 100 (0 no effect, 100 complete control)
[22] = Preemergence, 31 g ai/ha, scale 0 to 100 (0 no effect, 100 complete control)
[23] = Preemergence, 62 g ai/ha, scale 0 to 100
[24] = Preemergence, 125 g ai/ha, scale 0 to 100

Cc1nn(-c2ccc(C(F)(F)F)cc2)nc1Cc1ccnc(C(F)(F)F)c1 [Compound 47, 4-[[5-methyl-2-[4-(trifluoromethyl)phenyl]-2H-1,2,3-triazol-4-yl]methyl]-2-(trifluoromethyl)pyridine]
Plant response rating, Cocklebur [1, 10]: 10
Plant response rating, Cocklebur [1, 11]: 65
Plant response rating, Cocklebur [1, 12]: 70
Plant response rating, Cocklebur [1, 13]: 70
Plant response rating, Cocklebur [1, 14]: 0
Plant response rating, Cocklebur ([1]; Preemergence, 62 g ai/ha, scale 0 to 100, 0 no effect, 100 complete control): 0
Plant response rating, Cocklebur [1, 15]: 0
Plant response rating, Cocklebur ([1]; Preemergence, 250 g ai/ha, scale 0 to 100, 0 no effect, 100 complete control): 5
Plant response rating, Canarygrass [2, 16]: 60
Plant response rating, Canarygrass [2, 17]: 75
Plant response rating, Canarygrass [2, 18]: 85
Plant response rating, Canarygrass ([2]; 250 g ai/ha, scale 0 to 100): 90
Plant response rating, Deadnettle [3, 16]: 95
Plant response rating, Deadnettle [3, 17]: 100
Plant response rating, Deadnettle [3, 18]: 100
Plant response rating, Deadnettle ([3]; 250 g ai/ha, scale 0 to 100): 100

Cc1nn(-c2ccc(C(F)(F)F)cc2)nc1Cc1cccc(C(F)(F)F)c1 [Compound 124]
Plant response rating, Cocklebur ([1]; Postemergence, 16 g ai/ha, scale 0 to 100, 0 no effect, 100 complete control): 10
Plant response rating, Cocklebur [1, 10]: 15
Plant response rating, Cocklebur [1, 11]: 20
Plant response rating, Cocklebur [1, 12]: 55
Plant response rating, Canarygrass [2, 19]: 0
Plant response rating, Canarygrass [2, 16]: 20
Plant response rating, Canarygrass [2, 17]: 35
Plant response rating, Canarygrass [2, 18]: 85
Plant response rating, Deadnettle [3, 19]: 75
Plant response rating, Deadnettle [3, 16]: 80
Plant response rating, Deadnettle [3, 17]: 98
Plant response rating, Deadnettle [3, 18]: 98

Fc1ccc(-n2nc(Cc3ccnc(C(F)(F)F)c3)c(OCC(F)(F)F)n2)cc1 [Compound 142]
Plant response rating, Cocklebur [1, 11]: 30
Plant response rating, Cocklebur [1, 12]: 40
Plant response rating, Cocklebur [1, 13]: 50
Plant response rating, Cocklebur [1, 14]: 0
Plant response rating, Cocklebur ([1]; Preemergence, 62 g ai/ha, scale of 0 to 100, 0 is no effect, 100 is complete control): 10
Plant response rating, Cocklebur [1, 15]: 10
Plant response rating, Canarygrass [2, 16]: 45
Plant response rating, Canarygrass [2, 17]: 80
Plant response rating, Canarygrass [2, 18]: 85
Plant response rating, Canarygrass ([2]; 250 g ai/ha, scale 0 to 100): 100
Plant response rating, Deadnettle [3, 16]: 100
Plant response rating, Deadnettle [3, 17]: 100
Plant response rating, Deadnettle [3, 18]: 100
Plant response rating, Deadnettle ([3]; 250 g ai/ha, scale 0 to 100): 100

Cc1nn(-c2ccc(F)c(C(F)(F)F)c2)nc1Oc1ccnc(C(F)(F)F)c1 [Compound 147]
Plant response rating: Kochia (kochia (Kochia scoparia); [10]): 85
Plant response rating: Kochia (kochia (Kochia scoparia); [11]): 90
Plant response rating: Kochia (kochia (Kochia scoparia); [12]): 95
Plant response rating, Kochia (kochia (Kochia scoparia); [20]): 70
Plant response rating, Kochia (kochia (Kochia scoparia); [21]): 15
Plant response rating, Kochia (kochia (Kochia scoparia); [22]): 15
Plant response rating, Kochia (kochia (Kochia scoparia); [23]): 50
Plant response rating, Kochia (kochia (Kochia scoparia); [24]): 70
Plant response rating, Cocklebur [1, 14]: 35
Plant response rating, Speedwell ([4]; 16 g ai/ha, scale 0 to 100 (0 no effect, 100 complete control)): 10
Plant response rating, Speedwell [4, 16]: 20
Plant response rating, Speedwell ([4]; 62 g ai/ha, scale 0 to 100): 100
Plant response rating, Speedwell ([4]; 125 g ai/ha, scale 0 to 100): 100
Plant response rating: Mustard, Wild [5, 10]: 100
Plant response rating: Mustard, Wild [5, 11]: 100
Plant response rating: Mustard, Wild [5, 12]: 100
Plant response rating, Mustard, Wild [5, 20]: 95
Plant response rating, Mustard, Wild [5, 21]: 55
Plant response rating, Mustard, Wild [5, 22]: 60
Plant response rating, Mustard, Wild [5, 23]: 100
Plant response rating, Mustard, Wild [5, 24]: 95
Plant response rating: Pigweed [6, 10]: 70
Plant response rating: Pigweed [6, 11]: 85
Plant response rating: Pigweed [6, 12]: 95
Plant response rating, Pigweed [6, 20]: 75
Plant response rating, Pigweed [6, 21]: 35
Plant response rating, Pigweed [6, 22]: 75
Plant response rating, Pigweed [6, 23]: 80
Plant response rating, Pigweed [6, 24]: 100
Plant response rating: Galium [7, 16]: 65
Plant response rating: Galium [7, 17]: 75
Plant response rating: Galium [7, 18]: 90
Plant response rating, Galium ([7]; 16 g ai/ha, scale 0 to 100): 55
Plant response rating: Field Poppy [8, 10]: 90
Plant response rating: Field Poppy [8, 11]: 100
Plant response rating: Field Poppy [8, 12]: 100
Plant response rating, Field Poppy [8, 20]: 90
Plant response rating, Field Poppy [8, 21]: 55
Plant response rating, Field Poppy [8, 22]: 75
Plant response rating, Field Poppy [8, 23]: 95
Plant response rating, Field Poppy [8, 24]: 100
Plant response rating: Lambsquarters [9, 10]: 75
Plant response rating: Lambsquarters [9, 11]: 90
Plant response rating: Lambsquarters [9, 12]: 95
Plant response rating, Lambsquarters [9, 20]: 75
Plant response rating, Lambsquarters [9, 21]: 5
Plant response rating, Lambsquarters [9, 22]: 50
Plant response rating, Lambsquarters [9, 23]: 80
Plant response rating, Lambsquarters [9, 24]: 85
